In patent US20220289679A1, “HETEROCYCLIC COMPOUND” (Takeda Pharmaceutical Company Limited, priority 2019, published 2022) one finds inhibition data, which are given here for 21 compounds.

Each structure is given as a SMILES string.

For the assay, the target named is T1, human GCS (glucosylceramide synthase) (Homo sapiens, UniProt Q16739).
T1 construct: made in house; host or cells: Expi293F cells (transient expression; microsome fraction)
T1 sequence (Q16739 1-394): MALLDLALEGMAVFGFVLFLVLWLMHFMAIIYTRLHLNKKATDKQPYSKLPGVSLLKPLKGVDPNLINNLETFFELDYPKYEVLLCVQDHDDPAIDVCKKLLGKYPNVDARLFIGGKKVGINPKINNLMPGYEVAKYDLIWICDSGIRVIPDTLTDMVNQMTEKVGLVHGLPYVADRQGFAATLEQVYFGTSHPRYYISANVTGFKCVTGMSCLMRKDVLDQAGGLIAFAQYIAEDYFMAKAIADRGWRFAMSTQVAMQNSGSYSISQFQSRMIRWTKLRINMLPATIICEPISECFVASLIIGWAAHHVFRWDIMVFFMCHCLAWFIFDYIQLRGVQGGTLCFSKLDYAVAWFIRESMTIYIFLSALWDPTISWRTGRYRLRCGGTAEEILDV
Put plainly: Glucosylceramide Synthase (GCS) Assay. The assay is classed as biochemical. To be noted: test compound 10 μM; microsome fraction of Expi293F cells expressing human GCS; 1.7 μM UDP-glucose, 3 μM C8 ceramide; room temperature 60 min; C8 glucosylceramide by Rapidfire MS/MS; read-out: GCS enzyme inhibitory rate at 10 μM (%). The method, then:
In enzyme assay, a microsome fraction obtained by transient expression by Expi293F™ cells (catalog number: A14527, Thermo Fisher Scientific) was used as a glucosylceramide synthase source. Liposomal C8 ceramide and UDP-glucose were used as substrates. For each substrate concentration, 1.7 μM UDP-glucose, which is equal to the Km value, and 3 μM C8 ceramide were used. After the enzymatic reaction, the analysis was performed with Rapidfire MS/MS (API-4000™, SCIEX), and C8 glucosylceramide was quantified to evaluate the inhibitory activity of the test compound against glucosylceramide synthase activity.
PcDNA3.3TOPO vector (catalog number: K830001, Thermo Fisher Scientific) into which the human GCS gene was inserted was introduced into Expi293F™ Cells (catalog number: A14527, Thermo Fisher Scientific) by using ExpiFectamine™ 293 Transfection Kit (catalog number: A14525, Thermo Fisher Scientific). The cultured cells were dissolved in D-PBS (catalog number: 048-29805, Fuji Film Wako Pure Chemical Industries, Ltd.) containing 1 mM PMSF, and the solution was allowed to stand on ice for 30 minutes, and then subjected to cell disruption (homogenized). The disruption solution was centrifuged at 10,000×g for 20 minutes at 4° C., and the obtained supernatant was centrifuged at 142,400×g for 60 minutes at 4° C. The obtained precipitate was resuspended in a D-PBS solution containing 1 mM PMSF, and homogenized again to prepare as a microsome fraction. Protein quantification was performed by the CBB method.
A 1 mM compound solution prepared by dissolving the test compound in DMSO was added to a 384-well plate by 100 nL so that the final concentration of the test compound was 10 μM. Next, a substrate solution consisting of 3.4 μM UDP-glucose and 6 μM C8 ceramide was added by 5 μL, followed by an enzyme solution consisting of a 25 μg/mL microsome fraction by 5 μL. C8 ceramide was prepared from liposomes composed of 15 mol % C8 ceramide and 85 mol % dioleoyl phosphatidylcholine (1,2-dioleoyl-sn-glycero-3-phosphocholine: DOPC). The enzymatic reaction was carried out in a solution consisting of 20 mM tris-hydrochloric acid buffer (pH 7.5), 0.01% Tween 20, 0.01% bovine serum albumin and 1 mM dithiothreitol at room temperature for 60 min. Then, a solution consisting of 75% isopropanol and 1% formic acid containing 0.25 μM N-Octadecanoyl-D35-psichosine (catalog number: 1914, Matreya) as an internal standard substance was added by 60 μL to stop the enzymatic reaction. 5 μL of the centrifugal supernatant of the obtained reaction product was analyzed by Rapidfire MS/MS (Agilent Technologies) using API-4000™ (SCIEX), and the C8 glucosylceramide was quantified to evaluate the inhibitory activity of the test compound against the glucosylceramide synthase activity. The inhibitory activity of the test compound was evaluated when the C8 glucosylceramide level in the enzyme-free solution was considered as 100% inhibitory and the enzyme activity of the DMSO group in the absence of the compound was considered as 0% inhibitory.
Take `O=C(Nc1ccc(C(O)(C(F)F)C(F)F)cc1Cl)c1ccnn(-c2ccccc2OCC(F)F)c1=O` [Example 160, N-[2-chloro-4-(1,1,3,3-tetrafluoro-2-hydroxypropan-2-yl)phenyl]-2-[2-(2,2-difluoroethoxy)phenyl]-3-oxo-2,3-dihydropyridazine-4-carboxamide]: the inhibition at 10 µM stood at 100%. Under `O=C(Nc1ccc(C2(O)CCC2)cc1)c1cccn(-c2ccccc2OCC(F)(F)F)c1=O` [Example 96, N-[4-(1-hydroxycyclobutyl)phenyl]-2-oxo-1-[2-(2,2,2-trifluoroethoxy)phenyl]-1,2-dihydropyridine-3-carboxamide] stands 100%; under `O=C(Nc1ccc(C(O)C2CC2)nc1)c1cccn(-c2ccccc2OCC(F)(F)F)c1=O` (racemic) [Example 76, rac-N-{6-[cyclopropyl(hydroxy)methyl]pyridin-3-yl}-2-oxo-1-[2-(2,2,2-trifluproethoxy)phenyl]-1,2-dihydropyridine-3-carboxamide], 98%; under `O=C(Nc1ccc(C(O)(C(F)F)C(F)F)nc1)c1ccnn(-c2ccccc2OCC(F)(F)F)c1=O` [Example 162, 3-oxo-N-[6-(1,1,3,3-tetrafluoro-2-hydroxypropan-2-yl)pyridin-3-yl]-2-[2-(2,2,2-trifluoroethoxy)phenyl]-2,3-dihydropyridazine-4-carboxamide], 100%. With `CC(C)(O)c1ccc(NC(=O)c2cccn(-c3cccnc3OCC(F)(F)F)c2=O)cc1` [Example 114, N-[4-(2-hydroxypropan-2-yl)phenyl]-2-oxo-2′-(2,2,2-trifluoroethoxy)-2H-[1,3′-bipyridine]-3-carboxamide], the inhibition at 10 µM was found to be 96%.

`N#CCc1ccc(NC(=O)c2cccn(-c3ccc(F)cc3OCC(F)(F)F)c2=O)cn1` [Example 80, N-[6-(cyanomethyl)pyridin-3-yl]-1-[4-fluoro-2-(2,2,2-trifluoroethoxy)phenyl]-2-oxo-1,2-dihydropyridine-3-carboxamide]: the inhibition at 10 µM worked out at 71%. `O=C(Nc1ccc(C(O)(C(F)F)C(F)F)nc1)c1cccn(-c2cc(F)ccc2OCC(F)(F)F)c1=O` [Example 124, 1-[5-fluoro-2-(2,2,2-trifluoroethoxy)phenyl]-2-oxo-N-[6-(1,1,3,3-tetrafluoro-2-hydroxypropan-2-yl)pyridin-3-yl]-1,2-dihydropyridine-3-carboxamide]: the inhibition at 10 µM was 99%. Turning to `O=C(Nc1ccc(C(O)(C(F)F)C(F)F)cc1)c1cccn(-c2ccc(F)cc2OCC(F)(F)F)c1=O` [Example 78, 1-[4-fluoro-2-(2,2,2-trifluoroethoxy)phenyl]-2-oxo-N-[4-(1,1,3,3-tetrafluoro-2-hydroxypropan-2-yl)phenyl]-1,2-dihydropyridine-3-carboxamide], the inhibition at 10 µM turned out to be 100%. Take `CC(C)(O)c1ccc(NC(=O)c2cccn(-c3ccc(F)cc3OCC(F)(F)F)c2=O)cc1F` [Example 83, N-[3-fluoro-4-(2-hydroxypropan-2-yl)phenyl]-1-[4-fluoro-2-(2,2,2-trifluoroethoxy)phenyl]-2-oxo-1,2-dihydropyridine-3-carboxamide]: the inhibition at 10 µM was determined as 98%.

In the case of `Cc1cc(C(=O)Nc2ccc(C(O)(C(F)F)C(F)F)cc2)c(=O)n(-c2ccccc2OCC(F)F)n1` [Example 152, 2-[2-(2,2-difluoroethoxy)phenyl]-6-methyl-3-oxo-N-[4-(1,1,3,3-tetrafluoro-2-hydroxypropan-2-yl)phenyl]-2,3-dihydropyridazine-4-carboxamide], the inhibition at 10 µM stood at 100%. For `N#Cc1ccc(NC(=O)c2cccn(-c3ccc(F)cc3OCC(F)(F)F)c2=O)cc1` [Example 41, N-(4-cyanophenyl)-1-[4-fluoro-2-(2,2,2-trifluoroethoxy)phenyl]-2-oxo-1,2-dihydropyridine-3-carboxamide] the value was 88%; for `O=C(Nc1ccc(C(O)(C(F)F)C(F)F)cc1)c1cccn(-c2ccccc2OCC(F)(F)F)c1=O` [Example 77, 2-oxo-N-[4-(1,1,3,3-tetrafluoro-2-hydroxypropan-2-yl)phenyl]-1-[2-(2,2,2-trifluoroethoxy)phenyl]-1,2-dihydropyridine-3-carboxamide], 100%.

Regarding `O=C(Nc1ccc(C(O)(C(F)F)C(F)F)cc1)c1ccnn(-c2ccccc2OCC(F)F)c1=O` [Example 153, 2-[2-(2,2-difluoroethoxy)phenyl]-3-oxo-N-[4-(1,1,3,3-tetrafluoro-2-hydroxypropan-2-yl)phenyl]-2,3-dihydropyridazine-4-carboxamide], the inhibition at 10 µM amounted to 100%.

Turning to `O=C(Nc1ccc(OCC(F)(F)F)nc1)c1cccn(-c2ncncc2OCC(F)(F)F)c1=O` [Example 110, 2-oxo-N-[6-(2,2,2-trifluoroethoxy)pyridin-3-yl]-1-[5-(2,2,2-trifluoroethoxy)pyrimidin-4-yl]-1,2-dihydropyridine-3-carboxamide], the inhibition at 10 µM was 99%. For `O=C(Nc1ccc(C(O)(C(F)(F)F)C(F)(F)F)cc1)c1cccn(-c2ccc(F)cc2OCC(F)(F)F)c1=O` [Example 103, 1-[4-fluoro-2-(2,2,2-trifluoroethoxy)phenyl]-N-[4-(1,1,1,3,3,3-hexafluoro-2-hydroxypropan-2-yl)phenyl]-2-oxo-1,2-dihydropyridine-3-carboxamide] the value was 100%; for `O=C(Nc1ccn(CC2CC2(F)F)n1)c1cccn(-c2ccc(F)cc2OCC(F)(F)F)c1=O` (racemic) [Example 55, rac-N-{1-[(2,2-difluorocyclopropyl)methyl]-1H-pyrazol-3-yl}-1-[4-fluoro-2-(2,2,2-trifluoroethoxy)phenyl]-2-oxo-1,2-dihydropyridine-3-carboxamide], 88%; for `O=C(Nc1ccc(C(O)(C(F)F)C(F)F)nc1)c1cccn(-c2ccnnc2OCC(F)(F)F)c1=O` [Example 122, 2-oxo-N-[6-(1,1,3,3-tetrafluoro-2-hydroxypropan-2-yl)pyridin-3-yl]-1-[3-(2,2,2-trifluoroethoxy)pyridazin-4-yl]-1,2-dihydropyridine-3-carboxamide], 95%. For `CC(C)(O)COc1ccc(NC(=O)c2cccn(-c3ccccc3OCC(F)(F)F)c2=O)cc1` [Example 70, N-[4-(2-hydroxy-2-methylpropoxy)phenyl]-2-oxo-1-[2-(2,2,2-trifluoroethoxy)phenyl]-1,2-dihydropyridine-3-carboxamide] the value was 97%; for `COc1ccc(NC(=O)c2cccn(-c3ccccc3OCC(F)(F)F)c2=O)cn1` [Example 13, N-(6-methoxypyridin-3-yl)-2-oxo-1-[2-(2,2,2-trifluoroethoxy)phenyl]-1,2-dihydropyridine-3-carboxamide], 96%. Regarding `O=C(Nc1ccc(C(O)C2CC2)nc1)c1cccn(-c2ccc(F)cc2OCC(F)(F)F)c1=O` (single isomer, unassigned) [Example 115, (R or S)-N-{6-[cyclopropyl(hydroxy)methyl]pyridin-3-yl}-1-[4-fluoro-2-(2,2,2-trifluoroethoxy)phenyl]-2-oxo-1,2-dihydropyridine-3-carboxamide], the inhibition at 10 µM worked out at 86%.

Consider `O=C(Nc1ccc(C2CC2)cn1)c1cccn(-c2ccccc2OCC(F)(F)F)c1=O` [Example 21, N-(5-cyclopropylpyridin-2-yl)-2-oxo-1-[2-(2,2,2-trifluoroethoxy)phenyl]-1,2-dihydropyridine-3-carboxamide], for which the inhibition at 10 µM stood at 99%.
